{"source": "patent US20040072789A1", "about": "“Veterinary composition for the topical treatment of traumatized or inflamed skin” (priority 2000, published 2004)", "origin": "cited, not measured here", "system": "fungal infections of the skin"}
{"smiles": "COC1=CC(=O)C[C@@H](C)[C@]12Oc1c(Cl)c(OC)cc(OC)c1C2=O", "note": "[griseofulvin]", "values": [{"measurement": "effect of topical administration on fungal infections of the skin", "result": "very limited effect"}]}
